These are literature values, as cited in US20160249623A1, “METHODS FOR DISPENSING SALT-FREE HYPOCHLOROUS ACID FOR HAND-SANITIZING” (priority 2015, published 2016).

Data set [1] deals with all viruses, bacteria, mold and spores.
The test system of data set [2] is HIV (Human Immunodeficiency Virus). As to conditions: the longest kill-time.

Take `OCl` [HOCI, hypochlorous acid]: the kill-time result in data set [1] is recorded as “within seconds”; in data set [2], “less than 1 minute”.
